Entries after “also recorded” stand apart in the source; their conditions may differ. Where no end group is shown, it is not given here. [ ]: non-standard residue; d: D form.

Data set [1] relates to ICR mice, punch skin wound. The experiment in a line: murine wound model, wound closure. The class given is in vivo. The conditions noted are these: topical 10 μg per mouse daily for 10 consecutive days. The source says: FIGS. 1 and 2 illustrate the effect of polypeptides IK34720 (SEQ ID NO: 3—RSKAKNPLYRRRRRRRRR) (FIG. 1) and the dextro-reverso sequence IK236770 (SEQ ID NO: 4—rrrrrrrrrylpnkaksr) (FIG. 2), on wound healing over 10 days in a murine wound model in accordance with the following protocol.
Three groups of 8 male ICR mice with a mean weight of 22 g (+2 g) were used in the present study. The animals were housed in individual cages during the study. Under isoflurane gas anaesthesia, the shoulder and back region of each animal was shaved and a sharp punch (ID 12 mm) was used to induce a wound by removing the skin, including panniculus carnosus and adherent tissues on Day 1.
Following induction of the wound the polypeptides IK34720 and IK236770 were topically administered to the site of the wound at a dosage of 10 μg per animal. […] An additional group which comprised the administration of Phosphate buffered Saline (PBS) at pH 7.4 was used as a negative control.
The wound healing was analysed on Days 5, 7, 9 and 11 by tracing the periphery of the wound onto clear plastic sheets with the wound area calculated by an Image analyzer ProPlus (Media Cybernetics, Version 4.5.0.29. The percentage closure of the wound (%) was calculated. Percentage closure of the wound was determined on 5, 7, 9 and 11. ANOVA and Dunnett's test were applied to test significant significance between the treated groups (peptide and positive control groups) and the negative control group at each time point of measurement. Differences were considered statistically significant at P<0.05, and are indicated by *.

Data set [2] concerns primary keratinocytes. In words: CPD detection by IHC in keratinocytes 3 h following UV-irradiation. Format: cell-based. The following applies: 5 μM after ssUV; fixed 3 h after UV. The protocol: An in vitro assay was conducted allowing for densitometry analysis of CPD detection by IHC in keratinocytes 3 h following UV-irradiation in accordance with the following protocol.
Keratinocytes were harvested and cultured as described above at Example 2. Samples were split into two groups, being UV irradiated (UVR) and non-UV irradiated (SHAM). UV-irradiation was performed by solar simulated UV-irradiation for cells, also as described above at Example 2. Irradiation solution was PBS containing 5 mM D-glucose. […]
Harvested keratinocytes were plated on poly-D-lysine coated coverslips in 96 well plates and irradiated (or sham treated) as described above in at Example 2 in PBS containing 5 mM D-glucose. Keratinocytes were fixed 3 h after UV-irradiation. Immunohistochemistry and image analysis were performed as described previously (Gordon-Thomson et al., Photochem Photobiol Sci, 2012, 11 (12): 1837-47; Gupta et al., vide supra, Rybchyn M S et al., J Invest Dermatol, 2018; 138 (5): 1146-1156). Thymine dimers were detected using the anti-thymine dimer antibody (Sigma-Aldrich, Missouri, USA) at 10 μg/mL, and quantified as an index of CPD, as previously described (Douki T and Cadet J, Biochemistry, 2001, 40 (8): 2495-501).
Following irradiation, keratinocytes were treated with either Calcitriol, vehicle control (Veh) or the polypeptide IK34720 (SEQ ID NO: 3; “IK”) IK14800; (RSKAKNPLYRRRRRRRRR), RSKAKNPLY (IK94000) and RRRRRRRRR (IK00900), at concentrations of 5 μM.

The subject of data set [3] is dermal fibroblasts. In words: TBARS lipid peroxidation assay, UV-irradiated dermal fibroblasts. The following applies: IK-3 at the highest concentration (5 μM); 1,25D. Format: cell-based. The protocol:
The ability of the polypeptide RSKAKNPLYRRRRRRRRR to alter UV-induced oxidative damage of cell-derived lipids was examined using the TBARS thiobarbituric acid-reactive substances (TBARS) lipid peroxidation assay.
After irradiation or sham-irradiation of dermal fibroblasts, supernatants (900 μL) were collected. In brief, 90 μL of butylated hydroxytoluene (2% w/w in ethanol) was added and samples kept frozen (−20° C.) until the TBARS assay. Petri dishes were washed twice with 1 mL of HBSS, cells scraped in 600 μL of water and 60 μL of 0.5% aqueous Triton X100 added to this solution, for protein determination carried out by the Lowry method (Lowry O H et al, J. Biol. Chem., 1951, 193:265-275). TBARS were fluorometrically assayed as described (Morlière P et al, Biochim. Biophys. Acta, 1991, 1084:261-268). Briefly, thawing samples were heated in the presence of thiobarbituric acid in acidic conditions, and TBARS extracted with 1-butanol and fluorometrically quantified (λexc=515 nm and Aem=550 nm). Tetraethoxypropane, which quantitatively yields the malondialdehyde-thiobarbituric acid adduct in the assay conditions, was used for calibration. TBARS values, expressed in malondialdehyde (MDA) equivalents, were normalized to the cell protein for each Petri dish. Each TBARS determination was performed in triplicate (e.g., with three Petri dishes per data point).

Data set [4] relates to MMP1. The experiment in a line: MMP1 immunohistochemical staining in UV-irradiated human skin explants. The class given is cell-based. The following applies: 3 hrs post irradiation/treatment; Calcitriol 1 nM; IK34720 50, 250 or 500 μM. As to the method:
Human skin (2×human explant tissues) removed at elective surgery was cleaned, dissected and cut into pieces of approx. 5 mm×5 mm. Each piece was placed in a well of a 96 well plate, with individual plates prepared to assess the effects 3 hrs post treatment. Skin was subjected to UV-radiation from solar-simulated UV source for 1.5 h (UVR), or non-irradiation (SHAM), and treated immediately after with a vehicle control, Calcitriol (1 nM) or the polypeptide IK34720 (SEQ ID NO: 3) at concentrations of 50 μM, 250 μM or 500 μM. In FIG. 17, IK50, IK250 and IK500 as μM concentrations refers to 15 μg, 75 μg and 150 μg of IK34720 per 120 μL culture medium/explant, respectively.
Samples harvested at 3 hrs were fixed, sectioned, immunohistochemically stained for MMP1 and quantified for MMP1 expression, by expressing epidermal area stained for MMP1 as a function of total epidermal area examined.

Data set [5] deals with human skin explants. In words: CPD formation in UV-irradiated human skin explants. The class given is cell-based. The following applies: 3 hrs post irradiation/treatment; Calcitriol 1 nM; IK34720 50, 250 or 500 μM. The protocol:
Human skin removed at elective surgery was cleaned, dissected and cut into pieces of approx. 5 mm×5 mm. Each piece was placed in a well of a 96 well plate, with individual plates prepared to assess the effects 3 hrs post treatment. All samples were performed in triplicate for each treatment. Skin was subjected to UV-radiation from solar-simulated UV source for 1.5 h (UVR), or non-irradiation (SHAM). Given that human skin is thicker than mouse skin, human skin explants were exposed to a radiation dose three times higher than that used for mouse skin, i.e., 20 J/cm2 versus 7 J/cm^2, respectively, and the output spectrum of the laboratory solar simulator has previously been reported (Rybchyn M S et al, J Invest Dermatol. 2018 May; 138 (5): 1146-1156) and treated immediately after with a vehicle control, Calcitriol (1 nM) or the polypeptide IK34720 (SEQ ID NO: 3) at concentrations of 50 μM, 250 μM or 500 μM.
Samples harvested at 3 hrs were fixed, section, stained and quantified as described in Example 5.

In data set [6] the target is T1, polypeptide IK34720 (RSKAKNPLYRRRRRRRRR).
T1 chain: RSKAKNPLYRRRRRRRRR

For `CCNC(=O)[C@H]1O[C@@H](n2cnc3c(N)nc(NCCc4ccc(CCC(=O)O)cc4)nc32)[C@H](O)[C@@H]1O` [CGS-21680, reference compound], in data set [1] (Day 5 to Day 11, vs negative control (PBS)), the wound closure percentage entry is listed as “increase wound healing”. “RSKAKNPLY (not fully specified (some residues)) [IK94000]”: in data set [2], the “CPD levels compared to vehicle-treated UV-irradiated keratinocytes” value was “decrease CPD levels; also recorded: statistically significant (*p<0.05) reduction in CPD levels” and the “reduction in CPD levels compared to Calcitriol” value is listed as “comparable reduction in CPD levels to keratinocytes treated with Calcitriol”. For RRRRRRRRR [IK00900], in data set [2], the “CPD levels compared to vehicle-treated UV-irradiated keratinocytes” value is reported as “decrease CPD levels; also recorded: statistically significant (*p<0.05) reduction in CPD levels” and the “reduction in CPD levels compared to Calcitriol” value was “comparable reduction in CPD levels to keratinocytes treated with Calcitriol”. Take “rrrrrrrrrylpnkaksr ([dR][dR][dR][dR][dR][dR][dR][dR][dR][dY][dL][dP][dN][dK][dA][dK][dS][dR]) [IK236770]”: in data set [1] (day 5, vs negative control), the “wound healing (wound closure % percentage)” value is listed as “statistically significant increase in wound healing”. In the case of `C=C1/C(=C\C=C2/CCC[C@]3(C)[C@@H]([C@H](C)CCCC(C)(C)O)CC[C@@H]23)C[C@@H](O)C[C@@H]1O` [Calcitriol, 1,25-dihydroxyvitamin D3, reference compound], in data set [3], the “significant difference in TRS (TBA reactive substances) between Sham and UV irradiation” value was “not seen”. Also, the “cells staining for MMP-1” value in data set [4] is recorded as “fewer stained cells”. Further, in data set [5], the “cells stained for CPDs” value is “fewer stained cells”.

B1: Human rheumatoid synovial fibroblast MMP-1 proenzyme, activated with APMA (protein)
chain: FVLTEGNPRWEQTHLTYRIENYTPDLPRADVDHAIEKAFQLWSNVTPLTFTKVSEGQADIMISFVRGDHRDNSPFDGPGGNLAHAFQPGPGIGGDAHFDEDERWTNNFREYNLHRVAAHELGHSLGLSHSTDIGALMYPSYTFSGDVQLAQDDIDGIQAIYGRSQNPVQPIGPQTPKACDSKLTFDAITTIRGEVMFFKDRFYMRTNPFYPEVELNFISVFWPQLPNGLEAAYEFADRDEVRFFKGNKYWAVQGQNVLHGYPKDIYSSFGFPRTVKHIDAALSEENTGKTYFFVANKYWRYDEYKRSMDPGYPKMIAHDFPGIGHKVDAVFMKDGFFYFFHGTRQYKFDPKTKRILTLQKANSWFNCRKN
For the molecule B1, the “MMP-1 enzyme activity in vitro (fluorimetric cleavage of Mca-Pro-Leu-Gly-Leu-Dap-Ala-Arg; peptide at 5, 10, 800 and 1000 uM pre-incubated with 8 nM activated enzyme)” value in data set [6] is reported as “inhibits MMP-1 activation in a dose dependent manner”.

For the origin of these results see patent US20250262139A1, “POLYPEPTIDES AND METHODS FOR IMPROVING SKIN CONDITIONS” (INTERK PEPTIDE THERAPEUTICS LIMITED, priority 2020, published 2025).
